This passage reports IC50, AC50 and EC50 results from ChEMBL document CHEMBL1201862, “PubChem BioAssay data set” (2004).

In general, IC50 refers to the midpoint of a concentration-inhibition curve. Broadly, the AC50 is the midpoint of the concentration-response curve, whichever way the signal moves.

Holding throughout (type): functional
In assay [1] the target is T1, Orexin/Hypocretin receptor type 1 (Homo sapiens, UniProt O43613).
T1 sequence (O43613 whole entry): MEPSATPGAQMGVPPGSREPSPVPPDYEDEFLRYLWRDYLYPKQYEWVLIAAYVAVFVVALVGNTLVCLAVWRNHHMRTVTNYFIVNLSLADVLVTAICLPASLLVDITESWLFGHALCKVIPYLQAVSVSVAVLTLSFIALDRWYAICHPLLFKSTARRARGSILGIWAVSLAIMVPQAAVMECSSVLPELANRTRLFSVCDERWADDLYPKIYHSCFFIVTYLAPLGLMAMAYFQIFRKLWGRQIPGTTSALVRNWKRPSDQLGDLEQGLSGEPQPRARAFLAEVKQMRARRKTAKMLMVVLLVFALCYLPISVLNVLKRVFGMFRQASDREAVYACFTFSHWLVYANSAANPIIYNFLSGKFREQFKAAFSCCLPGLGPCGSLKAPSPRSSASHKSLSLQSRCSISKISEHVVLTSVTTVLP
The assay can be described thus: Homogeneous Time Resolved Fluorescence (HTRF)-based cell-based high throughput dose response assay for antagonists of the orexin 1 receptor (OX1R; HCRTR1). [Related pubchem assays (depositor defined):AID434989, AID435008, AID463079, AID485270, AID492963, AID492964, AID492965, AID493232, AID504717, AID504718]. For orientation: TR-FRET usually uses a lanthanide donor and a delayed reading to cut background.

The target of assay [2] is T2, Ubiquitin-conjugating enzyme E2 N (Homo sapiens, UniProt P61088).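 Also: Dose-response confirmation in a TR-FRET assay detecting UBC13-driven polyubiquitin chain formation, inhibition measured.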
T2 sequence (P61088 whole entry): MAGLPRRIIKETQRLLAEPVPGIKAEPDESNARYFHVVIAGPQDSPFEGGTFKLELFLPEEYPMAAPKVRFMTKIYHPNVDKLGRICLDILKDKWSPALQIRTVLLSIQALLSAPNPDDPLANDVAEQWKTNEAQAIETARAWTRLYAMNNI

Assay [3] can be described thus: Counterscreen for antagonists of the orexin 1 receptor (OX1R; HCRTR1): Fluorescence-based cell-based high throughput dose response assay to identify antagonists of the parental CHO cell line. [Related pubchem assays (depositor defined):AID434989, AID435008, AID463079, AID485270, AID492963, AID492964, AID492965, AID493232, AID504699, AID504701]. A general note: A counterscreen serves to expose hits that act by an unwanted route or on another target.

Assay [4] concerns the target T1, Orexin/Hypocretin receptor type 1. The assay can be described thus: Fluorescence-based cell-based high throughput dose response assay for antagonists of the orexin 1 receptor (OX1R; HCRTR1). [Related pubchem assays (depositor defined):AID434989, AID435008, AID463079, AID485270, AID492963, AID492964, AID492965, AID493232, AID504717, AID504718].
The test system of a further assay is CHO-K1. The assay can be described thus: Counterscreen for antagonists of the orexin 1 receptor (OX1R; HCRTR1): Homogeneous time resolved fluorescence (HTRF)-based cell-based dose response assay to identify antagonists of the parental CHO-K1 cell line. [Related pubchem assays (depositor defined):AID434989, AID435008, AID463079, AID485270, AID492963, AID492964, AID492965, AID493232, AID504699, AID504701]. As to conditions: Cricetulus griseus.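 Also: potency for inhibition of ATP-stimulated IP1 production as antagonists.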

Assay [5] can be described thus: Luminescence Cell-Based Dose Retest to Confirm Inhibitors of Cancer Stem Cells. [Related pubchem assays (depositor defined):AID2717, AID2721]. As to conditions: Homo sapiens.
Assay [6] addresses Benomyl/methotrexate resistance protein (Candida albicans, UniProt P28873). Nature of the assay: CaMdr1 efflux pump inhibitor potency, dose response, singleplex, Cherry Pick2 set (AID 623992). As to conditions: read-out: EC50_MICROM.
Assay [7] concerns the target Multidrug resistance protein CDR2 (Candida albicans (strain SC5314 / ATCC MYA-2876) (Yeast), UniProt P78595). Nature of the assay: CaCDR2 efflux pump inhibitors in yeast, dose response, S. cerevisiae AD1-8u, singleplex, Cherry Pick2 set (AID 623994). As to conditions: read-out: EC50_MICROM.
Assay [8] addresses Multidrug resistance protein CDR1 (Candida albicans, UniProt P43071). The assay can be described thus: CaCdr1 efflux pump inhibitor potency, dose response, singleplex, Cherry Pick2 set (AID 623996). As to conditions: read-out: EC50_MICROM.
Assay [9] is described as follows: SAR analysis of small molecule activators of Apaf-1 using a LZ-Caspase-9/Caspase-3 Fluorescent Selectivity assay - Set 2. As to conditions: read-out: EC50_Mean.
The target of assay [10] is T3, Apoptotic protease-activating factor 1 (Homo sapiens, UniProt O14727).
T3 sequence (O14727 whole entry): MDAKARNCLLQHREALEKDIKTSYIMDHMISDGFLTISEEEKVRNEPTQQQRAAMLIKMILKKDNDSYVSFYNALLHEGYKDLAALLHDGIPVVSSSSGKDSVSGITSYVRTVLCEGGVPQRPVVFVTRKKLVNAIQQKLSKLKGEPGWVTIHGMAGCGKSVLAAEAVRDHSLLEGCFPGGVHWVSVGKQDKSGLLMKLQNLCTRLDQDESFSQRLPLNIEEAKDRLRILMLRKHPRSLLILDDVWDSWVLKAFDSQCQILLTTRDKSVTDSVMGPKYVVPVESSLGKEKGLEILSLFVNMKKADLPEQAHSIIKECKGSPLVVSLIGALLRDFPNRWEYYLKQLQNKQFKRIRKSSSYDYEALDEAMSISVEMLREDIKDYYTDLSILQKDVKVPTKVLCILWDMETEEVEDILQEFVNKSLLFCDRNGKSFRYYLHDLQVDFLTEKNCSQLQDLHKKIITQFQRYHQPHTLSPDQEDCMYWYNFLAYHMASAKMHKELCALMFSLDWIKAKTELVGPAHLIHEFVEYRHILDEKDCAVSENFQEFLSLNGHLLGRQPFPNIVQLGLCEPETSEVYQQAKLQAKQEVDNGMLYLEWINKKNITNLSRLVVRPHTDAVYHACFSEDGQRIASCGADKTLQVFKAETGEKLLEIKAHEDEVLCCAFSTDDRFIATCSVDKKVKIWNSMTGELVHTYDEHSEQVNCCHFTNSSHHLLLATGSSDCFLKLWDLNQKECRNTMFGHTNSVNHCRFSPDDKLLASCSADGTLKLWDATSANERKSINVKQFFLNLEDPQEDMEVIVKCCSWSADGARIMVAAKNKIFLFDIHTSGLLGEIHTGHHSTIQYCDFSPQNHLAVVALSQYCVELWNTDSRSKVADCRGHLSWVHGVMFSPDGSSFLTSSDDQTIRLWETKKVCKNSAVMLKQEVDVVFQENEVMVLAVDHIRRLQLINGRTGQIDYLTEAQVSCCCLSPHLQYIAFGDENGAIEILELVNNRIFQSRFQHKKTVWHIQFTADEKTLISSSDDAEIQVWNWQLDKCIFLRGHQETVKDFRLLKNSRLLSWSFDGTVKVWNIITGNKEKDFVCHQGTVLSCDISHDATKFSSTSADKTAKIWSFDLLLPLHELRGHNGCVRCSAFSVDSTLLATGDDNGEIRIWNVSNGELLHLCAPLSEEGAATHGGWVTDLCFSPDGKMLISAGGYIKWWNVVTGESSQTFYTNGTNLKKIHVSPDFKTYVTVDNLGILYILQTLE
Nature of the assay: SAR analysis of small molecule Activators of Apaf-1 in a Fluorescent assay - set 2. As to conditions: read-out: EC50_Mean.

Calls of active or inactive are those of the source.
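For AC50 in this document: cells exposed to compound for roughly 70 hours or longer before luminescence read.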

Sequence of Multidrug resistance protein CDR2 (P78595 whole entry): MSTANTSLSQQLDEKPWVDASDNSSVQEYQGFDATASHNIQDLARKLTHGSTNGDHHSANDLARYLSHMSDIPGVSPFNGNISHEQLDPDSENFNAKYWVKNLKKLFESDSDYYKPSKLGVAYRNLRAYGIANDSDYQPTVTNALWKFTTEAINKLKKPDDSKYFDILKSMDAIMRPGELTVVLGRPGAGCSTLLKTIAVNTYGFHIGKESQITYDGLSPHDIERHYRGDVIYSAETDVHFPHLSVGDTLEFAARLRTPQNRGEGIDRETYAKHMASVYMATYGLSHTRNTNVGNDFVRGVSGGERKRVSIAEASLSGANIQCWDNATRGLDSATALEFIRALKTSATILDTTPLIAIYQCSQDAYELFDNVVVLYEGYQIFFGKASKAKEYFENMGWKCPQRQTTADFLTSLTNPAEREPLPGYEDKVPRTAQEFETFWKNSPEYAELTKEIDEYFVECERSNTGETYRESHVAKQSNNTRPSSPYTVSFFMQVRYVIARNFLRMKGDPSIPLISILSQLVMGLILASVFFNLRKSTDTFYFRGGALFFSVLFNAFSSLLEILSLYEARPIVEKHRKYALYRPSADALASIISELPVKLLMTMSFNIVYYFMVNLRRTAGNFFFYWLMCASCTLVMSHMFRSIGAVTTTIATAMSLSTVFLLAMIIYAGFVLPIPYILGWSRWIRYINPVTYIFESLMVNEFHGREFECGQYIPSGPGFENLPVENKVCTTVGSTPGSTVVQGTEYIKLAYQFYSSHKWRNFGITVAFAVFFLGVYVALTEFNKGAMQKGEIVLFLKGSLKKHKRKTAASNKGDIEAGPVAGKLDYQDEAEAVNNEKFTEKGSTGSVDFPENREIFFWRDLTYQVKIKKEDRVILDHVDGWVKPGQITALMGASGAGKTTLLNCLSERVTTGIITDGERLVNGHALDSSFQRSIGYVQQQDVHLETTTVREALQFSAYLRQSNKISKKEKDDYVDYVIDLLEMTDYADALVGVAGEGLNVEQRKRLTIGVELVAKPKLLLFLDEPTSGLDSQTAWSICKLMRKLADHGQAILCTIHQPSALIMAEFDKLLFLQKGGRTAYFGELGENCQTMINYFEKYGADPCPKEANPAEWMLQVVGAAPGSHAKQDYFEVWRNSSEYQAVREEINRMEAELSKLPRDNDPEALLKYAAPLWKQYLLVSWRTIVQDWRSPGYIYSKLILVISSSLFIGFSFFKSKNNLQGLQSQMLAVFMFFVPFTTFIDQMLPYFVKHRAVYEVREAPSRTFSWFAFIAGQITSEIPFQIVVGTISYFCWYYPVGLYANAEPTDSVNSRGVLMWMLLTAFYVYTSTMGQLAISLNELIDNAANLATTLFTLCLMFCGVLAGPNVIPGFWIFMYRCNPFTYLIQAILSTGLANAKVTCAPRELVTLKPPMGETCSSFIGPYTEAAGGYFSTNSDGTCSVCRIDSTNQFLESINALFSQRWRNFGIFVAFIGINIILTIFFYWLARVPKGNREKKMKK
Sequence of Benomyl/methotrexate resistance protein (P28873 whole entry): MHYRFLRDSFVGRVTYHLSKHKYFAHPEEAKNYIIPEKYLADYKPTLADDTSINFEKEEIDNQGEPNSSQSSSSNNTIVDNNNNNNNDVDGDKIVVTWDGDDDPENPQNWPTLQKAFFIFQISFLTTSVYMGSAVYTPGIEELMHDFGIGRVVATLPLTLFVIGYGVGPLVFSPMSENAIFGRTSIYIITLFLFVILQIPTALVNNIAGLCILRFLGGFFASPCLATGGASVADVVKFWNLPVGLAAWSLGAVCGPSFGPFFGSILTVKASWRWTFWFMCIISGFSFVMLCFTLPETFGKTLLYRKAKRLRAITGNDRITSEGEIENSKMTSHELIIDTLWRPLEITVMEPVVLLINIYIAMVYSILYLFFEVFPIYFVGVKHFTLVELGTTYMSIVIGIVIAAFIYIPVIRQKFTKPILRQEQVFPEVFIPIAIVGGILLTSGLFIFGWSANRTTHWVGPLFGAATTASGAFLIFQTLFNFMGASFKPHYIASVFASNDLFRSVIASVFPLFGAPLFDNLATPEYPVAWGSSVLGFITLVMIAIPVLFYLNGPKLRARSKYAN
Sequence of Multidrug resistance protein CDR1 (P43071 whole entry, looked up): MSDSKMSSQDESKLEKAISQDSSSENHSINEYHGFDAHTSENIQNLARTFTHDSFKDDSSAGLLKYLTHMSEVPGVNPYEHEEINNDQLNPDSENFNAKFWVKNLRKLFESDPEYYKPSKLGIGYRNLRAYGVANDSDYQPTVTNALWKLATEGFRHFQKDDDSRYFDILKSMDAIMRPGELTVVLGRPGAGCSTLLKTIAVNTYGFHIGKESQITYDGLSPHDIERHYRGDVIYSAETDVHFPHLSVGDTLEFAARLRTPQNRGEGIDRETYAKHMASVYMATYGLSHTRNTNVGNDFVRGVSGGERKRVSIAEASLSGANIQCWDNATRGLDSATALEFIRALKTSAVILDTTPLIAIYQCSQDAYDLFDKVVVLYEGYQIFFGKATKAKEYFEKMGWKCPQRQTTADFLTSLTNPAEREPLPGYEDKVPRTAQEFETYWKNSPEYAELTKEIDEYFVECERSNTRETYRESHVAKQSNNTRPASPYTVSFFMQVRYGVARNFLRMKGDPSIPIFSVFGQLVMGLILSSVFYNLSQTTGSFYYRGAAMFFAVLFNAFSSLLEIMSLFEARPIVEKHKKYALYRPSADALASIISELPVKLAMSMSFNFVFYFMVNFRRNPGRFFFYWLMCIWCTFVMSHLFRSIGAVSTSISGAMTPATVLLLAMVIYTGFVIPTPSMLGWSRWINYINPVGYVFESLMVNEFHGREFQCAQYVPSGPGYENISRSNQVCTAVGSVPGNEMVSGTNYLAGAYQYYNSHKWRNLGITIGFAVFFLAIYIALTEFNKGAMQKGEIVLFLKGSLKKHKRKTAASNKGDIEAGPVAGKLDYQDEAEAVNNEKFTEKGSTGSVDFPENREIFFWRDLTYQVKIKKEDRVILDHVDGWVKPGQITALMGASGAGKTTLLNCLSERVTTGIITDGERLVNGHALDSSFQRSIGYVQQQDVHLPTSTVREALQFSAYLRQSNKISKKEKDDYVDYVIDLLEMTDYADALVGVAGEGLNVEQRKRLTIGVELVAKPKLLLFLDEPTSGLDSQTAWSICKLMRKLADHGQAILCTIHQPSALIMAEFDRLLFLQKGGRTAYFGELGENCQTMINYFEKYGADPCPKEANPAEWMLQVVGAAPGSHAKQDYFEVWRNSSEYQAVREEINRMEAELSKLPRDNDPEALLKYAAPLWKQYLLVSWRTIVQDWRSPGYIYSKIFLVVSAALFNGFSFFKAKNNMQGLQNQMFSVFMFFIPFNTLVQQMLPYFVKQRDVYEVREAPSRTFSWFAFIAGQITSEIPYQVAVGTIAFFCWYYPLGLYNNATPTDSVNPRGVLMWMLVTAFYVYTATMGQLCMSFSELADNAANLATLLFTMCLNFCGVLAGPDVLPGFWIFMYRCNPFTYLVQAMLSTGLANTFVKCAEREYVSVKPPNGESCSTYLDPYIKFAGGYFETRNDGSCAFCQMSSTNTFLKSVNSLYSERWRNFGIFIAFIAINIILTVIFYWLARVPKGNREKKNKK

`COc1cccc(-c2sc3ccc(OC)cc3c2-c2ccc(OCCN(C)C)cc2)c1`: the IC50 was > 66.2 µM (inactive) in [1]; > 20 µM (inactive) in [2]; 17.5 µM (inactive) in [3]; 15.8 µM (inactive) in assay [4]; > 66.2 µM (inactive) with CHO-K1. Further, in assay [5], the AC50 was 3.37 µM (active). Besides, the EC50 in [6] was 32.1 µM (active); in [7], 15.2 µM (active); in assay [8] it was 26.8 µM (active).
For `CC(CN1CCCC1)C(=O)O` (stereo unspecified), the EC50 in assay [9] and in assay [10] was > 100 µM (inactive) each time.
